Test results: ChEMBL document CHEMBL5678818, “Discovery of potent SOS1 inhibitors that block RAS activation via disruption of the RAS-SOS1 interaction” (Proc Natl Acad Sci U S A, 2019)

How the values were obtained:
[1] = target: Cyclin-dependent kinase 9 (Homo sapiens) (UniProt P50750); experiment: Inhibition of CDK9 (unknown origin) assessed as residual activity at 1000 nM by KINOMEscan analysis relative to control
[2] = target: Receptor tyrosine-protein kinase erbB-4 (Homo sapiens) (UniProt Q15303); experiment: Inhibition of ERBB4 (unknown origin) assessed as residual activity at 1000 nM by KINOMEscan analysis relative to control
[3] = tested on: Leucine-rich repeat serine/threonine-protein kinase 2 (Homo sapiens), Q5S007 [G2019S]; experiment: Inhibition of LRRK2 G2019S mutant (unknown origin) assessed as residual activity at 1000 nM by KINOMEscan analysis relative to control
[4] = target: T1, Serine/threonine-protein kinase Nek10 (Homo sapiens) (UniProt Q6ZWH5); experiment: Inhibition of NEK10 (unknown origin) assessed as residual activity at 1000 nM by KINOMEscan analysis relative to control
T1 sequence (whole entry): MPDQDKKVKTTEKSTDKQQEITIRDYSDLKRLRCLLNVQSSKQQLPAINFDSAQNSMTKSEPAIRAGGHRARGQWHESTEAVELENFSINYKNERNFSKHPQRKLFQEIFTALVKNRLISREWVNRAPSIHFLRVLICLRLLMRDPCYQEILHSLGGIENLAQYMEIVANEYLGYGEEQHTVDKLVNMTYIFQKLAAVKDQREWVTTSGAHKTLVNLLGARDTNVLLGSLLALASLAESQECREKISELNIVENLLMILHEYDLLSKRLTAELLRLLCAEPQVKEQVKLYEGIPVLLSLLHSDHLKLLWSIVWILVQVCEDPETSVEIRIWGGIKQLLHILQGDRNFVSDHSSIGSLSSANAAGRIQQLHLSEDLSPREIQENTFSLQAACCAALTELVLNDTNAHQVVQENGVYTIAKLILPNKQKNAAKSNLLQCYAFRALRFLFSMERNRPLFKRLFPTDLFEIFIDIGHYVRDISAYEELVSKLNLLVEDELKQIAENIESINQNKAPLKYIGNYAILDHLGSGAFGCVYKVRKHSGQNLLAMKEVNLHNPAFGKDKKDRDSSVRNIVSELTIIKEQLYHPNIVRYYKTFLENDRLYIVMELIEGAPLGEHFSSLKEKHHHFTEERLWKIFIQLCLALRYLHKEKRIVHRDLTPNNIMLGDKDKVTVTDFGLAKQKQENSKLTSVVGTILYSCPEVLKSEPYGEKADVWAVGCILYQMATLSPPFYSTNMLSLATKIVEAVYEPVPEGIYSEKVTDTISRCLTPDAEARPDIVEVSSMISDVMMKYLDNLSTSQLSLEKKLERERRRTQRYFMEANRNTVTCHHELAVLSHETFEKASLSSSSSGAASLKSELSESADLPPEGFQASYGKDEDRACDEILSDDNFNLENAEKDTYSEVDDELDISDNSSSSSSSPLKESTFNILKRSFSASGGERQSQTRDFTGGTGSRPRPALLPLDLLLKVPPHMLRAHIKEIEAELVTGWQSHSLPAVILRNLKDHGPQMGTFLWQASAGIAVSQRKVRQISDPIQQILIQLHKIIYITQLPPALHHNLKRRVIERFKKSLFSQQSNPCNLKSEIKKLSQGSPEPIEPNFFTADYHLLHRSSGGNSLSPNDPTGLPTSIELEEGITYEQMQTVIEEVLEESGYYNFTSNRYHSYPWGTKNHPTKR

[5] = target: T2, Mitogen-activated protein kinase 12 (Homo sapiens) (UniProt P53778); experiment: Inhibition of p38-gamma (unknown origin) assessed as residual activity at 1000 nM by KINOMEscan analysis relative to control
T2 sequence (whole entry): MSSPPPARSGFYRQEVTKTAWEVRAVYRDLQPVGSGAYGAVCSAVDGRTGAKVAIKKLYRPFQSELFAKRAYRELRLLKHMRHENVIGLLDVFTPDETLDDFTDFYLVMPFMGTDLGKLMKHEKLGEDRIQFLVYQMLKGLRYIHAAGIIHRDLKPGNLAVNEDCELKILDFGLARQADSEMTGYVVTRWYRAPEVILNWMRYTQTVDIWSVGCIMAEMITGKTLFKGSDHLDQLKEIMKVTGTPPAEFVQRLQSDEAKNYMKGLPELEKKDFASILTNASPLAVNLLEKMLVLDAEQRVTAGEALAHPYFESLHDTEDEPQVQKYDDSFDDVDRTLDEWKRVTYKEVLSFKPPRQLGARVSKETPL

[6] = target: Phosphatidylinositol 4,5-bisphosphate 3-kinase catalytic subunit gamma isoform (Homo sapiens) (UniProt P48736); experiment: Inhibition of PIK3CG (unknown origin) assessed as residual activity at 1000 nM by KINOMEscan analysis relative to control
[7] = target: T3, cGMP-dependent protein kinase 2 (Homo sapiens) (UniProt Q13237); experiment: Inhibition of PRKG2 (unknown origin) assessed as residual activity at 1000 nM by KINOMEscan analysis relative to control
T3 sequence (whole entry): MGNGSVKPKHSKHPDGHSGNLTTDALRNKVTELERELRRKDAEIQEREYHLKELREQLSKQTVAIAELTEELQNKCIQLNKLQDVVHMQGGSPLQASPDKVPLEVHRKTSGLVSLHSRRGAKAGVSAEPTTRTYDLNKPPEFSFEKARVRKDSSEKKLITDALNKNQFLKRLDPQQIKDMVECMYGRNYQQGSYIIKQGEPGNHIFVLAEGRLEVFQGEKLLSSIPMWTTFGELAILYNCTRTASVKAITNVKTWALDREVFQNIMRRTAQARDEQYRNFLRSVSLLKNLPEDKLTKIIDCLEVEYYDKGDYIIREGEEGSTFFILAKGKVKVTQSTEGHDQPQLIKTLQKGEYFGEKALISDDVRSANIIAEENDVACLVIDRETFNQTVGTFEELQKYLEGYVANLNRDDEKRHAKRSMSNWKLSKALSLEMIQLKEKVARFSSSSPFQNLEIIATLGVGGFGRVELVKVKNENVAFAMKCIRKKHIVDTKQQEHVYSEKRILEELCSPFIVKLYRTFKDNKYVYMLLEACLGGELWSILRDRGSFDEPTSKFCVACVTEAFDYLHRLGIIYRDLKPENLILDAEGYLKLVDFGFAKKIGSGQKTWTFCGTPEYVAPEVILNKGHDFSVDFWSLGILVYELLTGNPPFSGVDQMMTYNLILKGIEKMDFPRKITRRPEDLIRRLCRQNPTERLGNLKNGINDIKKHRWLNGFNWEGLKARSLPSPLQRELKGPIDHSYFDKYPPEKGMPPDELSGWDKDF

[8] = target: SRSF protein kinase 2 (Homo sapiens) (UniProt P78362); experiment: Inhibition of SRPK2 (unknown origin) assessed as residual activity at 1000 nM by KINOMEscan analysis relative to control
Chain of SRSF protein kinase 2 (Homo sapiens) (P78362 whole entry, looked up): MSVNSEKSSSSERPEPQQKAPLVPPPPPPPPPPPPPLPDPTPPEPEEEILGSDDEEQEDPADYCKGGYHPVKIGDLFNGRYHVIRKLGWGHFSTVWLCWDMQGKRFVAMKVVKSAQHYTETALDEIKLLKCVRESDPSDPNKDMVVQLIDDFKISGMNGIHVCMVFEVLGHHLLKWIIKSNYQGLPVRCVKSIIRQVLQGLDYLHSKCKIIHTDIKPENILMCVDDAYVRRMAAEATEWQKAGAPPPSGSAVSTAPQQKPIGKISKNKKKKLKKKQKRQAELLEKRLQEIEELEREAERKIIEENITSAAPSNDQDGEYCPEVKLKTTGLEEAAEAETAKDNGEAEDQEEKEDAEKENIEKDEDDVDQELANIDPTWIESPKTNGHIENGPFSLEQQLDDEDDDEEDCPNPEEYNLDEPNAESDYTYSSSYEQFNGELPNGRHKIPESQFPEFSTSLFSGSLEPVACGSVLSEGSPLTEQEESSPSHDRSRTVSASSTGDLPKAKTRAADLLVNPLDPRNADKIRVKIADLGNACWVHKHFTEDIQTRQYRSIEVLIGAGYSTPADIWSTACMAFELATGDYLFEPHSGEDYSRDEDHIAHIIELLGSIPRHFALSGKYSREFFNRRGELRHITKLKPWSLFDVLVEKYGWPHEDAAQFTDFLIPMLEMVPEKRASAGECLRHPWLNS

Chain of Receptor tyrosine-protein kinase erbB-4 (Homo sapiens) (Q15303 whole entry): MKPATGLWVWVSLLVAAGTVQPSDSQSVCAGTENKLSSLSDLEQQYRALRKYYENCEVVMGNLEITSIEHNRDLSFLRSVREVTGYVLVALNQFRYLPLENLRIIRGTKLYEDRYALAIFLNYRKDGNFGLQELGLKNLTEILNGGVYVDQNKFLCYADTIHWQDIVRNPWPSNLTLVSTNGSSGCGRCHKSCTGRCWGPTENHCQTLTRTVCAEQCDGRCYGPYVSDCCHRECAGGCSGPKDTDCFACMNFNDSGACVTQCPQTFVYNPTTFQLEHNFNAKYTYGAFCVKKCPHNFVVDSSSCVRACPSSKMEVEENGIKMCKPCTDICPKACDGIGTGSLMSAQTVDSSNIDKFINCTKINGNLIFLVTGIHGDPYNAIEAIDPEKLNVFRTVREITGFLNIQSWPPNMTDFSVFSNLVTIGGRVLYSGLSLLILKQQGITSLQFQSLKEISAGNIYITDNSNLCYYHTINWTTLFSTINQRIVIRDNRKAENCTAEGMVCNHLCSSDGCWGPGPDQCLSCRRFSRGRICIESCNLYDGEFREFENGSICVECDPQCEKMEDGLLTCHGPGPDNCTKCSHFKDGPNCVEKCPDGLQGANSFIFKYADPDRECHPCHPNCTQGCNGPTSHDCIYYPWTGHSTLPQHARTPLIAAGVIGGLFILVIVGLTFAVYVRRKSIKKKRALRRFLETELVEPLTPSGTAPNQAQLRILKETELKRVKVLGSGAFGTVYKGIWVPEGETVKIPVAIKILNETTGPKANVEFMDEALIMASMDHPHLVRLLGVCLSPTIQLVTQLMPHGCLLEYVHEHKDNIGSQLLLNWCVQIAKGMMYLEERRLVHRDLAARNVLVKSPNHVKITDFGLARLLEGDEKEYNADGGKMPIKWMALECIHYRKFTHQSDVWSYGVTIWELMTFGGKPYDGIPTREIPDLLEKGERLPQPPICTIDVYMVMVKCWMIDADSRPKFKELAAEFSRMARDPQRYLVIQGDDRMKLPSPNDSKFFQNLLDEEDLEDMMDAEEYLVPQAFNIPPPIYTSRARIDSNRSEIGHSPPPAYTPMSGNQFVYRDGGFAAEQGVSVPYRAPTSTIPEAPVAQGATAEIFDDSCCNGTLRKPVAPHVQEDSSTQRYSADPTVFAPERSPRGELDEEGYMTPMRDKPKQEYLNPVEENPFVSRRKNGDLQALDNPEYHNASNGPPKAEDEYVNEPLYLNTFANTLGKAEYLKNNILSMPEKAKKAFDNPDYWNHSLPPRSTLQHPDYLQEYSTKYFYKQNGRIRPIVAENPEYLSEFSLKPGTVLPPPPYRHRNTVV
Chain of Cyclin-dependent kinase 9 (Homo sapiens) (P50750 whole entry): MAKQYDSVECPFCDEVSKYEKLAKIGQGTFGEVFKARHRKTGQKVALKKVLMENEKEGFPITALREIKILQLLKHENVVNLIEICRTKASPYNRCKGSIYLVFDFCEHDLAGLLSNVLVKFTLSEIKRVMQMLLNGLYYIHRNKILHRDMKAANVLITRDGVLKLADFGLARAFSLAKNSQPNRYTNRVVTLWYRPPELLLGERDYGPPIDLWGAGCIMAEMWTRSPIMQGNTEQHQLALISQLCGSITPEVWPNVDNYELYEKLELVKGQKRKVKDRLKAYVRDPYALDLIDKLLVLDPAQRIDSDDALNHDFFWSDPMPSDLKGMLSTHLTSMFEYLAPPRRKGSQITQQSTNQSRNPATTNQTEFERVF
Chain of Leucine-rich repeat serine/threonine-protein kinase 2 (Homo sapiens), Q5S007 [G2019S] (Q5S007 whole entry G2019S): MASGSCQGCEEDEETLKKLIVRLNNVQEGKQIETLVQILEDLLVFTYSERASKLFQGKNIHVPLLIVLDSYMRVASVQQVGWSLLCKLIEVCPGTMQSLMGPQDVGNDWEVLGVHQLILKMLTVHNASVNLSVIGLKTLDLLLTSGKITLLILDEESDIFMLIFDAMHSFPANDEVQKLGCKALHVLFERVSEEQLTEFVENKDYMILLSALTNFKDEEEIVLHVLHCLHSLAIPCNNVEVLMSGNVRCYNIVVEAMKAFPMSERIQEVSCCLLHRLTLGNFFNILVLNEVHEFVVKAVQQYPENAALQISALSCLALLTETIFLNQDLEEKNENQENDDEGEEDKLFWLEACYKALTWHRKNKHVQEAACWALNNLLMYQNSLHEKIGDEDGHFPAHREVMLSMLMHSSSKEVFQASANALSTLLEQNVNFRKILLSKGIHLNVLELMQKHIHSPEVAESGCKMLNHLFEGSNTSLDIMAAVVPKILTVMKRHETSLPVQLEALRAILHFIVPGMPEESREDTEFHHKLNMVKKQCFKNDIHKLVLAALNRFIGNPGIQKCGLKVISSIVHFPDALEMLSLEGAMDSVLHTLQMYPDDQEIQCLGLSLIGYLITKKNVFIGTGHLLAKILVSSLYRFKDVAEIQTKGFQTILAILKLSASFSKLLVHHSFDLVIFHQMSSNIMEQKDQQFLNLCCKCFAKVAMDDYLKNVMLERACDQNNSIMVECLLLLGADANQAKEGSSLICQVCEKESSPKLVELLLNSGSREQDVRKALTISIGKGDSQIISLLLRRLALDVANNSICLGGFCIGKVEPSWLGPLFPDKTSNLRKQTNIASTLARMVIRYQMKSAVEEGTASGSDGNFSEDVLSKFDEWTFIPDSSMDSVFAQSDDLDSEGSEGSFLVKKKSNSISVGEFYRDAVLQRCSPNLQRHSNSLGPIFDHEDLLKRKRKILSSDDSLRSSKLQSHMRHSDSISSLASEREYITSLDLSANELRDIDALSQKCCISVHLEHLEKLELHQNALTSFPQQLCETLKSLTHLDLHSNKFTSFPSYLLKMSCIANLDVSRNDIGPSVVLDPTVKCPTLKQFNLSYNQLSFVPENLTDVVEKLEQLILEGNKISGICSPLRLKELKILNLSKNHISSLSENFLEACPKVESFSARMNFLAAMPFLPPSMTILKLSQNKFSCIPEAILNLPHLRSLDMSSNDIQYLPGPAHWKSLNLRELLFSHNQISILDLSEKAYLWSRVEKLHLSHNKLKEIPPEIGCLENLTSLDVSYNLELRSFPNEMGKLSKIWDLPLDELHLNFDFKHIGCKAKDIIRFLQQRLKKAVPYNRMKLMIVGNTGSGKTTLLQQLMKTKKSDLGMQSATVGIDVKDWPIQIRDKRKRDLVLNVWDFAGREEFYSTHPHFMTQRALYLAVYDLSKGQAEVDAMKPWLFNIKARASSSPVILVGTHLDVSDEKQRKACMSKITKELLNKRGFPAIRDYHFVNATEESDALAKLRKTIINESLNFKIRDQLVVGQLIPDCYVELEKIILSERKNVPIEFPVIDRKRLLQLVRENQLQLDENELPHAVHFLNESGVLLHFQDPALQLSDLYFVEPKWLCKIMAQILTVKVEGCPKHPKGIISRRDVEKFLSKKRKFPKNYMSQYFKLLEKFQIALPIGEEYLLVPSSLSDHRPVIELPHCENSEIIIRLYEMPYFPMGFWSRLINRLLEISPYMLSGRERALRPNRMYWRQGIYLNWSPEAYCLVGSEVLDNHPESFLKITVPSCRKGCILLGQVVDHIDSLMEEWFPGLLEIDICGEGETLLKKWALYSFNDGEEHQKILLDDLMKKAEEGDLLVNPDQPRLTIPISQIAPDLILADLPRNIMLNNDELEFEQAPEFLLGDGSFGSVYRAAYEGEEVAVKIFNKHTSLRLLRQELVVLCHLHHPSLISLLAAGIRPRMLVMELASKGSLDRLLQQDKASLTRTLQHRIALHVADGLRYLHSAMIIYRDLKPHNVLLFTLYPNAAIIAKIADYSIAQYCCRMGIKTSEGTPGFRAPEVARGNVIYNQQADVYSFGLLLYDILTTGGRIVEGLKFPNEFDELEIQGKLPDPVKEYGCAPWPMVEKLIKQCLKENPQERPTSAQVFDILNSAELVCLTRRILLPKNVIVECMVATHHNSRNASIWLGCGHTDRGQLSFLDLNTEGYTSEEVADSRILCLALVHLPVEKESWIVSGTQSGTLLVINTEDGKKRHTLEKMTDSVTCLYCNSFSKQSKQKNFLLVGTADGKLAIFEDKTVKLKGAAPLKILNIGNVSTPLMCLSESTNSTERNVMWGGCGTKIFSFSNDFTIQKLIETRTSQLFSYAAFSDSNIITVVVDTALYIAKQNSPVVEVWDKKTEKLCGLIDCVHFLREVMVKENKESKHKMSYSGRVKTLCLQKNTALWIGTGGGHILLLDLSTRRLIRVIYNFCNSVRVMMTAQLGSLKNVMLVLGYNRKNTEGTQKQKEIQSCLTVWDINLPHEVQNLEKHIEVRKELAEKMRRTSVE

SMILES: COc1cc2nc(C)nc(N[C@H](C)c3cccc(-c4cn[nH]c4)c3)c2cc1OC
- Activity [1]: 95%
- Activity [2]: 89%
- Activity [3]: 91%
- Activity [4]: 90%
- Activity [5]: 52%
- Activity [6]: 97%
- Activity [7]: 98%
- Activity [8]: 94%

SMILES: COc1cc2ncnc(N[C@H](C)c3cccc4ccccc34)c2cc1OC
- Activity [1]: 95%
- Activity [2]: 46%
- Activity [3]: 95%
- Activity [4]: 68%
- Activity [5]: 91%
- Activity [6]: 83%
- Activity [7]: 91%
- Activity [8]: 93%
